Measured values reported in ChEMBL document CHEMBL5316359, “Strophioblachins A-K, Structurally Intriguing Diterpenoids from Strophioblachia fimbricalyx with Potential Anticardiac Hypertrophic Inhibitory Activity” (J Nat Prod, 2023).
The source made the active and inactive calls. No cut-off for these calls is given here.

Assays:
[1] = test system: Cardiac muscle cell; assay: Anticardiac hypertrophic activity in phenylephrine-induced hypertrophy in neonatal Sprague-Dawley rat cardiomyocyte assessed as decrease in NPPA mRNA expression at 5 to 50 uM preincubated for 12 hrs followed by phenylephrine stimulation and measured after 48 hrs by qRT-PCR analysis; type: functional, cell-based; conditions: dose 5-50 µM, time 60.0 hrs
[2] = test system: Cardiac muscle cell; assay: Anticardiac hypertrophic activity in phenylephrine-induced hypertrophy in neonatal Sprague-Dawley rat cardiomyocyte assessed as decrease in NPPB mRNA expression at 5 to 50 uM preincubated for 12 hrs followed by phenylephrine stimulation and measured after 48 hrs by qRT-PCR analysis; type: functional, cell-based; conditions: dose 5-50 µM, time 60.0 hrs
[3] = test system: Cardiac muscle cell; assay: Anticardiac hypertrophic activity in phenylephrine-induced hypertrophy in neonatal Sprague-Dawley rat cardiomyocyte assessed as decrease in ANP protein expression at 5 to 50 uM preincubated for 12 hrs followed by phenylephrine stimulation and measured after 48 hrs by Western blot analysis; type: functional, cell-based; conditions: dose 5-50 µM, time 60.0 hrs
[4] = Cytotoxicity against neonatal Sprague-Dawley rat cardiomyocyte assessed as reduction in ANP expression incubated for 48 hrs by ELISA assay; type: toxicity, cell-based, Cardiac muscle cell; conditions: neonatal rat cardiomyocytes

SMILES | Activity [1] | Activity [2] | Activity [3] | IC50 at 48 h [4] [µM]
COC(=O)c1cc2c(cc1OC)[C@]1(C)CCC(=O)C(C)(C)C1=C(O)C2=O | Dose-Dependent Effect | Dose-Dependent Effect | Active | 52.3
C=C[C@@]12C=C(C)C(=O)C=C1[C@]1(C)CC[C@@H](O)C(C)(C)[C@H]1CC2 | Dose-Dependent Effect | Dose-Dependent Effect | Active | 41.8
